Results: patent publication US10154992B2, “Compounds and methods for treating HIV infection” (THE REGENTS OF THE UNIVERSITY OF CALIFORNIA, priority 2016, dated 2018)
pEC50, pIC50: −log10 of the molar value. Converted amounts (≈) assume the structure as drawn. Like-named read-outs stand apart in the source and are kept apart here.

Legend:
[1] = MTT cell viability in Jurkat replication assay; type: cell-based; conditions: human, Jurkat (E6-1) cells, pH 7.4; Jurkat infectivity assay; read-out: TC50 (MTT cell viability)
Method: Virus spreading assay. Jurkat (E6-1) cells (NIH AIDS Reagent Program) were cultured in RPMI media supplemented with 25 mM HEPES pH 7.4, 10% heat-inactivated fetal calf serum (Hyclone, Waltham Mass.), and 1% penicillin/streptomycin. 2.5×10^5 Jurkat cells were inoculated with 250 pg p24 in 250 μl media in a 96-well flat bottom polystyrene cell culture microplate. Input virus was removed after 18 hours via washing cells phosphate-buffered saline (PBS). Cells were resuspended in 250 μl of media containing compounds at the described concentrations. Cells were incubated at 37° C., 5% CO2 and supernatant samples were removed every 48 hours and replaced with fresh media containing the compounds. Viral replication was quantified using ELISA to quantify p24 viral capsid protein in the culture supernatant. Mouse monoclonal and rabbit polyclonal α-p24 antibodies used in the ELISA were obtained from the NIH AIDS Reagent Program. Toxicity was monitored using the MTT cell viability assay (Mosmann, T. (1983). J Immunol Methods 65, 55-63).

[2] = tested on: HIV RRE (Rev-dependent) reporter; test: Rev reporter assay in 293T cells, p24 ELISA; type: cell-based; conditions: Human immunodeficiency virus 1, HEK-293T, Table 2
Method: Rev reporter assay. In the Rev reporter assay, 293T cells were transfected with an HIV RRE (Rev-dependent) reporter plus a pSV2 Rev expression plasmid (Hope, T. J., et al. (1990) Proc. Natl. Acad. Sci. USA 87, 7787-7791). Compounds were incubated with the cells for 48 hours and reporter activity was assessed by p24 ELISA. Leptomycin B, an inhibitor of the Crm1 pathway that inhibits Rev-dependent export, was included as a control. The cytotoxicity of each compound was determined in parallel via MTT-based cell viability assays.

Rev-RRE IIB interaction = molecular target: T1, Rev-RRE IIB interaction (Human immunodeficiency virus type 1 group M subtype B, UniProt P04608+P04618); type: cell-based, HIV
T1 construct: with a fusion to HIV Rev (residues 3-70) was generated; expressed in transfected cells
Method: A library of approximately 4500 carboxamide-containing compounds was assembled and tested in the reporter cell line at 30 μM. Reporter cells were plated in a white 96-well plate and compounds were added to the cells using a Biomek FX robotic liquid handler (Beckman Coulter). The cells were incubated with the compound for 48 hours then assayed for luciferase activity (Promega Bright Glo). The cytotoxicity of each compound was determined in parallel via MTT-based cell viability assays.
(§1) Cells were counted and plated into white 384-well or 96-well cell-culture treated assay plates and compounds were added. After 48 hours, the cells were prepared for luminescence assays that were performed on a plate reader (Tecan Evolution or MD Analyst). The cytotoxicity of each compound was determined in parallel via MTT-based cell viability assays.
as §1, with “Tat hybrid reporter assay. […] Previously characterized thienopyridines and diaminoacridine were used as controls. Cells” for “Cells”, “384-well” for “384-well or 96-well”, “lumincescence” for “luminescence”
The RRE IIB-Rev screening cell line was plated in 384-well assay plates and compounds were added to the cells to a final concentration of 30 μM. Cells were prepared and assayed for luciferase activity. […] In parallel, MTT cell viability assays were performed to assess the toxicity of compounds and minimize the level of false positives.

[3] = Aqueous solubility pH 7.4; type: physicochemical; conditions: aqueous solution, pH 7.4, pH 7.4, aqueous buffer
Excerpt: We next evaluated analogs 2b, 2f, 4a, and 4e in a panel of standard in vitro ADME assays to assess drug-like properties and the potential for efficacy in animals.

[4] = tested on: A7854G mutant (RRE) virus; test: Replication of RRE A7854G resistant virus; type: cell-based, HIV

T1 sequence (P04608 whole entry, looked up, the tested form may be a part): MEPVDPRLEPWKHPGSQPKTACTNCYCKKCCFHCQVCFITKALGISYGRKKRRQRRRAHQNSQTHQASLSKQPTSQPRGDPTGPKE
T1 sequence (P04618 whole entry, looked up, the tested form may be a part): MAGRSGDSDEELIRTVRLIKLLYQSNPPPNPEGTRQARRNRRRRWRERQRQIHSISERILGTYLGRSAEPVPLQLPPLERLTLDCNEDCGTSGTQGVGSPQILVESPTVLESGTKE

In the case of `NC(=O)c1cc2c(-c3ccc4c(c3)CCO4)cncc2s1` [Compound 4e, 4-(2,3-dihydro-1-benzofuran-5-yl)thieno[2,3-c]pyridine-2-carboxamide], the CC50 [1] was less than 40000 nM, the pEC50 [2] was 6.30 to 7.00 and the “activity in the Tat-hybrid reporter assay” value (Rev-RRE IIB interaction) was “low-nM potency”. It also gave a solubility [3] of 0.28 µM (≈ 0.083 µg/mL), a pIC50 ([4]; Human immunodeficiency virus 1, read-out: IC50 A7854G mutant) of 6.66 and a pIC50 ([4]; Human immunodeficiency virus 1, read-out: IC50 resistant-virus) of 8.29.
